Here are results for 20 compounds from patent US7309718B2, “Dibenzocycloheptene compound” (UBE Industries, Ltd., priority 2001, dated 2007).

One may read the Ki as a dissociation constant, usually derived from enzyme kinetics or from competition with a known ligand. By melting point is commonly meant the temperature of the solid-liquid transition. In general, pKi refers to −log10 of the Ki, conventionally taken in molar units. A low value points to a large Ki.

In data set [1] the test system is Leukotriene D4 (LTD4) induced respiratory constriction. The experiment in a line: Leukotriene D4 induced respiratory constriction test. Type of data set: in vivo, guinea pig. The note with it: Cavia porcellus, po, read-out: LTD4 inhibitory activity. As to the method:
Leukotriene D4 Induced Respiratory Constriction Test
Respiratory constriction was measured by modifying the method of Konzett and Rossler (Arch. Exp. Pathol. Pharmakol., 195, pp. 71-74 (1940)). Hartley male guinea pigs (400 to 500 g body weight, Japan SLC Inc.) were anesthetized with pentobarbital (50 mg/kg, s.c.), and a cannula was inserted into the trachea to carry out artificial ventilation with an artificial ventilator (manufactured by Harvard Apparatus, Model 683). An inner pressure of the respiratory tract was measured by a differential pressure transducer (Nihon Kohden, TP-603T) connected to the respiratory cannula and it is used as an index of respiratory constriction.
LTD4 (0.03, 0.06, 0.13, 0.25, 0.5, 1 and 2 μg/kg, Simga-Aldrich) was intravenously administered from a cannula inserted into the right jugular vein from a low dose with an interval of 5 minutes to cause a respiratory constricttion reaction and an increased amount of a respiratory inner pressure was measured. Test compound was suspended in 0.5% sodium carboxymethyl cellulose aqueous solution or dissolved in 30% propylene glycol aqueous solution, and orally administered 24 hours before administration of LTD4. Animals were fasted for 24 hours before administration of the Test compound. […] LTD4 inhibitory activity=(Dose of Compound administered)/{(ED50 of group to which Compound was added)/(ED50 of control group)-1}

The target of data set [2] is T1, Leukotriene D4 (LTD4) receptor (Cavia porcellus, UniProt Q2NNR5).
T1 sequence (Q2NNR5 1-340): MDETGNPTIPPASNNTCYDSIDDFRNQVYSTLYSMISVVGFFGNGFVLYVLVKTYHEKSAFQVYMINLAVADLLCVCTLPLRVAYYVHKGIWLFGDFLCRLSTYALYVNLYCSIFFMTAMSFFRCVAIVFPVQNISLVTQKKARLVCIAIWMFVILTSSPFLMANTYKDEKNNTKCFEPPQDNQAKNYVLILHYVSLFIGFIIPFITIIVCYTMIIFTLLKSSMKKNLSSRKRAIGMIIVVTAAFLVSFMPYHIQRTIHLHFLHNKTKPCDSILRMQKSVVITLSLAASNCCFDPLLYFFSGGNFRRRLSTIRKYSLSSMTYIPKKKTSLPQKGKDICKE
The experiment in a line: Leukotriene D4 receptor binding test ([3H]LTD4, lung cell membrane fraction). The note with it: binding inhibition constant vs 0.2 nM [3H]LTD4, guinea pig lung cell membrane fraction, 25° C. 30 minutes.
Method: Leukotriene D4 Receptor Binding Test
<Preparation of Receptor Sample>
As a receptor sample, a lung cell membrane fraction from guinea pigs was used. […] Lungs of Hartley male guinea pigs (400 to 500 g body weight, Japan SLC Inc.) were isolated, and perfused with a physiological saline, and then, adding 10 mM of PIPES, 10 mM of MgCl2 and 10 mM of CaCl2 buffer (pH 7.5) to the lung tissue and the mixture was homogenized. This homogenate was centrifuged at 70,000×g for 10 minutes to obtain a membrane fraction.
<Leukotriene D4 Receptor Binding Test>
To 0.42 mg of the receptor sample were added 10 mM of PIPES, 10 mM of MgCl2 and 10 mM of CaCl2 buffer (pH 7.5) to make the total amount of 480 μl, and 10 μl of [^3H] LTD4 (NEN Life Science Products Inc.) and 10 μl of a test compound in dimethylsulfoxide were added to the mixture, and the resulting mixture was incubated at 25° C. for 30 minutes. The mixtures thus incubated were filtered through a glass fiber filter (Whatman International Ltd., GF/C) using cell harvester (Biomedical Research & Development Laboratories, Inc., M-30R). The filter paper was washed with 10 mM of Tris and 100 mM of NaCl buffer (pH 7.5), and 5 ml of a liquid scintillator (nacalai tesque inc., clearsol I) was added thereto, and radioactivity was measured by a liquid scintillation analyzer (Packard Instrument Co., 2000CA). When a dissociation constant (Kd) of LTD4 was to be obtained, [^3H] LTD4 with 0.03 to 0.5 nM was used, and 1 μM of non-radioactive LTD4 was added. When a binding inhibition constant (Ki) of the Test compound is to be measured, [^3H] LTD4 with 0.2 nM was used.

The mark [3] stands for this setting: p.o. 24 h before LTD4 i.v., dose of compound shifting the control LTD4 dose-reaction curve two-times to higher dose, anesthetized guinea pigs.

Like-named read-outs stand apart in the source and are kept apart here.

On to `C[C@H](COC1c2ccccc2C=Cc2ccc(/C=C/c3ccc4cc(F)c(F)cc4n3)cc21)C(=O)[O-].[Na+]` (stereo partly drawn) [Example Compound 10, Sodium 3-{[3-[(E)-2-(6,7-difluoroquinolin-2-yl)ethenyl]-5H-dibenzo[a,d]cyclohepten-5-yl]oxy}-2-(R)-methyl-propionate], for which the ED (2-fold shift of LTD4 dose-response) in data set [1] (setting [3]) came out at 9.93 µg/kg. Besides, the Ki in data set [2] was 0.1 nM.

For `O=C([O-])CCSC1c2cc(/C=C/c3ccc4cc(F)c(Cl)cc4n3)ccc2C=Cc2c1cccc2C(F)(F)F.[Na+]` (stereo not shown) [Example Compound 28, Sodium 3-{[3-[(E)-2-(7-chloro-6-fluoroquinolin-2-yl)ethenyl]-9-trifluoromethyl-5H-dibenzo[a,d]cyclohepten-5-yl]thio}propionate], the ED (2-fold shift of LTD4 dose-response) in data set [1] (24 h) was 1.7 µg/kg.

Turning to `O=C([O-])CCSC1c2cc(/C=C/c3ccc4cc(F)c(Cl)cc4n3)ccc2C=Cc2c(Cl)cccc21.[Na+]` (stereo not shown) [Example Compound 20, Sodium 3-{[3-[(E)-2-(7-chloro-6-fluoroquinolin-2-yl)ethenyl]-9-chloro-5H-dibenzo[a,d]cyclohepten-5-yl]thio}-propionate], the ED (2-fold shift of LTD4 dose-response) in data set [1] (24 h) stood at 0.7 µg/kg.

In the case of `O=C([O-])CC1CC1CSC1c2ccccc2C=Cc2ccc(/C=C/c3ccc4cc(F)c(Cl)cc4n3)cc21.[Na+]` (stereo not shown) [Example Compound 16, Sodium 3-{[3-[(E)-2-(7-chloro-6-fluoroquinolin-2-yl)ethenyl]-5H-dibenzo[a,d]cyclohepten-5-yl]thiomethyl}-cyclopropaneacetate], the ED (2-fold shift of LTD4 dose-response) in data set [1] (24 h) came to 0.79 µg/kg.

For the compound `O=C(O)CCSC1c2ccccc2COc2ccc(OCc3ccc4cc(F)c(Cl)cc4n3)cc21` (stereo not shown) [Compound A, 3-[2-(7-chloro-6-fluoroquinolin-2-yl)methoxy-6,11-dihydrobenz[b,e]oxepin-11-yl]thiopropionic acid, reference compound], in data set [1] (setting [3]), the ED (2-fold shift of LTD4 dose-response) is 25.5 µg/kg.

As for `O=C(O)COC1c2ccccc2C=Cc2ccc(/C=C/c3ccc4cc(F)c(Cl)cc4n3)cc21` (stereo not shown) [Example Compound 11, Sodium [3-[(E)-2-(7-chloro-6-fluoroquinolin-2-yl)ethenyl]-5H-dibenzo[a,d]cyclohepten-5-yl]oxyacetate], in data set [2], the inhibition constant (Ki) is 0.126 nM.

For `O=C(O)CCSC1c2cc(/C=C/c3ccc4c(n3)CCCC4)ccc2C=Cc2c1cccc2C(F)(F)F` (stereo not shown) [Example Compound 31, Sodium 3-{[3-[(E)-2-(5,6,7,8-tetrahydroquinolin-2-yl)ethenyl]-9-trifluoromethyl-5H-dibenzo[a,d]cyclohepten-5-yl]thio}propionate], affinity in data set [2] was put at a Ki of 0.2 nM.

As to `O=C([O-])COC1c2cc(/C=C/c3ccc4cc(F)c(Cl)cc4n3)ccc2C=Cc2c(Cl)cccc21.[Na+]` (stereo not shown) [Example Compound 19, Sodium [3-[(E)-2-(7-chloro-6-fluoroquinolin-2-yl)ethenyl]-9-chloro-5H-dibenzo[a,d]cyclohepten-5-yl]oxy-acetate], the ED (2-fold shift of LTD4 dose-response) in data set [1] (setting [3]) amounted to 2.43 µg/kg.

For `O=C(O)COC1c2cc(/C=C/c3ccc4cc(F)c(Cl)cc4n3)ccc2C=Cc2c(F)cccc21` (stereo not shown) [Example Compound 17, Sodium [3-[(E)-2-(7-chloro-6-fluoroquinolin-2-yl)ethenyl]-9-fluoro-5H-dibenzo[a,d]cyclohepten-5-yl]oxy-acetate], the Ki in data set [2] is 0.158 nM.

`C[C@H](CSC1c2ccccc2C=Cc2ccc(/C=C/c3ccc4cc(F)c(F)cc4n3)cc21)C(=O)[O-].[Na+]` (stereo partly shown) yielded a melting point of 240 to 249 °C.

`O=C([O-])CCSC1c2ccccc2C=Cc2ccc(/C=C/c3ccc4cc(F)c(Cl)cc4n3)cc21.[Na+]` (stereo not shown) [Example Compound 7, Sodium 3-{[3-[(E)-2-(7-chloro-6-fluoroquinolin-2-yl)ethenyl]-5H-dibenzo[a,d]cyclohepten-5-yl]thio}propionate] returned a melting point of 228 to 238 °C. Also, in data set [1] (24 h), the ED (2-fold shift of LTD4 dose-response) worked out at 0.85 µg/kg. For the same compound, the inhibition constant (Ki) in data set [2] was 0.2 nM.

Compound `O=C([O-])CCSC1c2ccccc2C=Cc2ccc(/C=C/c3ccc4ccc(Cl)cc4n3)cc21.[Na+]` (stereo not shown) [Example Compound 8, Sodium 3-{[3-[(E)-2-(7-chloroquinolin-2-yl)ethenyl]-5H-dibenzo[a,d]cyclohepten-5-yl]thio}propionate] yielded a melting point of 193 to 203 °C. Moreover, the ED (2-fold shift of LTD4 dose-response) in data set [1] (24 h) came to 5.3 µg/kg.

For the compound `O=C([O-])CCSC1c2ccccc2C=Cc2ccc(/C=C/c3ccc4cc(F)c(F)cc4n3)cc21.[Na+]` (stereo not shown) [Example Compound 4, Sodium 3-{[3-[(E)-2-(6,7-difluoroquinolin-2-yl)ethenyl]-5H-dibenzo[a,d]cyclohepten-5-yl]thio}propionate], the melting point is 213 to 216 °C. The ED (2-fold shift of LTD4 dose-response) in data set [1] (24 h) is 1.91 µg/kg. Further, affinity in data set [2] was put at a Ki of 0.2 nM.

As for `O=C(O)COC1c2ccccc2C=Cc2ccc(/C=C/c3ccc4ccc(Cl)cc4n3)cc21` (stereo not shown) [Example Compound 29, Sodium [3-[(E)-2-(7-chloroquinolin-2-yl)ethenyl]-5H-dibenzo[a,d]cyclohepten-5-yl]oxyacetate], the affinity in data set [2], expressed as Ki, was 0.251 nM.

The compound `C[C@H](COC1c2ccccc2C=Cc2ccc(/C=C/c3ccc4cc(F)c(Cl)cc4n3)cc21)C(=O)O` (stereo partly drawn) [Example Compound 13, Sodium 3-{[3-[(E)-2-(7-chloro-6-fluoroquinolin-2-yl)ethenyl]-5H-dibenzo[a,d]cyclohepten-5-yl]oxy}-2-(R)-methylpropionate] gave an inhibitory constant (Ki) in data set [2] of 0.126 nM.

Regarding `O=C([O-])COC1c2ccccc2C=Cc2ccc(/C=C/c3ccc4cc(F)c(F)cc4n3)cc21.[Na+]` (stereo not shown) [Example Compound 3, Sodium [3-[(E)-2-(6,7-difluoroquinolin-2-yl)ethenyl]-5H-dibenzo[a,d]cyclohepten-5-yl]oxyacetate], the melting point was 213 to 227 °C. For the same compound, the ED (2-fold shift of LTD4 dose-response) in data set [1] (setting [3]) came out at 4.71 µg/kg. This compound showed a Ki in data set [2] of 0.1 nM.

Consider `O=C([O-])CCSC1c2cc(/C=C/c3ccc4cc(F)c(Cl)cc4n3)ccc2C=Cc2c(F)cccc21.[Na+]` (stereo not shown) [Example Compound 18, Sodium 3-{[3-[(E)-2-(7-chloro-6-fluoroquinolin-2-yl)ethenyl]-9-fluoro-5H-dibenzo[a,d]cyclohepten-5-yl]thio}-propionate], for which the ED (2-fold shift of LTD4 dose-response) in data set [1] (24 h) turned out to be 1.12 µg/kg.

Regarding `O=C(O)CCOC1c2ccccc2C=Cc2ccc(/C=C/c3ccc4cc(F)c(Cl)cc4n3)cc21` (stereo not shown) [Example Compound 12, Sodium 3-{[3-[(E)-2-(7-chloro-6-fluoroquinolin-2-yl)ethenyl]-5H-dibenzo[a,d]cyclohepten-5-yl]oxy}propionate], the Ki in data set [2] is 0.2 nM.

In data set [2], `O=C(O)CCSC1c2ccccc2C=Cc2ccc(/C=C/c3ccc4c(n3)CCCC4)cc21` (stereo not shown) [Example Compound 9, Sodium 3-{[3-[(E)-2-(5,6,7,8-tetrahydroquinolin-2-yl)ethenyl]-5H-dibenzo[a,d]cyclohepten-5-yl]thio}propionate] had a Ki of 0.158 nM.

On to “Sodium [3-[(E)-2-(7-chloroquinolin-2-yl)ethenyl]-5H-dibenzo[a,d]cyclohepten-5-yl]thioacetate [Example Compound 30]”, for which the negative logarithm of the Ki (pKi) in data set [2] amounted to 9.7.
